In patent publication US10406238B2, “Ligand ionophore conjugates” (PURDUE RESEARCH FOUNDATION, priority 2015, dated 2019):

How the values were obtained:
folate receptors = settings: read-out: binding affinity Kd; cited from earlier work
FRβ-expressing RAW cells = assay: Endosomal escape in FRβ-expressing RAW cells (confocal); format: cell-based
folate receptor = molecular target: T1, folate receptor (Homo sapiens, UniProt P15328); assay: Binding affinity to folate receptors in KB cells
T1 construct: endogenous in cells; host or cells: KB cells (human; maintained at Purdue Cancer Cell Culture Facility)

KB cells [1] = assay: Confocal microscopy for endosomal release in KB cells; format: cell-based, human
KB cells [2] = tested on: KB cells
KB cells [3] = assay: cells; settings: Homo sapiens, read-out: IC50 concentration, growth of KB cells

T1 sequence (P15328 25-234): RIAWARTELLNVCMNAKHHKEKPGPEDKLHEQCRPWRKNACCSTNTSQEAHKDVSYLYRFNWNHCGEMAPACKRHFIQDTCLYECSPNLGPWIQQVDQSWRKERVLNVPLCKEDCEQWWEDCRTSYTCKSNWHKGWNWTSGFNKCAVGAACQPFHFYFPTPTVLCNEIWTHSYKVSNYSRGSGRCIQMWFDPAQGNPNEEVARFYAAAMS

Nc1nc2ncc(CNc3ccc(C(=O)N[C@@H](CCC(=O)O)C(=O)O)cc3)nc2c(=O)[nH]1 [Folic acid]
Kd (folate receptors): 0.0001 µM

CCN(CC)c1ccc2c(-c3ccc(S(=O)(=O)NCCSSC[C@H](CC(=O)O)NC(=O)[C@H](CCCCN)NC(=O)[C@H](CC(=O)O)NC(=O)CC[C@H](NC(=O)c4ccc(NCc5cnc6nc(N)[nH]c(=O)c6n5)cc4)C(=O)O)cc3S(=O)(=O)[O-])c3ccc(=[N+](CC)CC)cc-3oc2c1 [compound 2, reference compound]
accumulation of dye inside the endosomes (FRβ-expressing RAW cells; 10 nM FR, by 2 h, with or without folate-nigericin conjugate 1): significant accumulation

CO[C@@H]1C[C@@H](C[C@H]2CC[C@H](C)C([C@@H](C)C(=O)OCCSSC[C@H](NC(=O)[C@H](CC(=O)O)NC(=O)[C@H](CC(=O)O)NC(=O)[C@H](CCCNC(=N)N)NC(=O)[C@H](CC(=O)O)NC(=O)CC[C@H](NC(=O)c3ccc(NCc4cnc5nc(N)[nH]c(=O)c5n4)cc3)C(=O)O)C(=O)O)O2)O[C@]2(O[C@@](C)(C3CC[C@@](C)([C@@H]4O[C@@H]([C@@H]5O[C@@](O)(CO)[C@H](C)C[C@@H]5C)C[C@@H]4C)O3)C[C@H]2C)[C@@H]1C (some centres unmarked) [conjugate 1]
binding affinity to folate receptors compared to folate-rhodamine compound 2 (folate receptor): 5 times lower
endosome size versus cells not treated with conjugate (FRβ-expressing RAW cells; 100 nM FN with 10 nM FR, FIG. 9): somewhat larger
effective concentration for co-incubation (KB cells [1]): 200 nM
endosomal release of the rhodamine dye (KB cells [1]): lower
release of rhodamine dye from the endosome (KB cells [1]): considerable release
time of high release of rhodamine dye from endosomes (KB cells [1]): 1 to 3 h

CO[C@@H]1C[C@@H](C[C@H]2CC[C@H](C)C([C@@H](C)C(=O)O)O2)O[C@]2(O[C@@](C)(C3CC[C@@](C)([C@@H]4O[C@@H]([C@@H]5O[C@@](O)(COC(=O)NCCSSC[C@H](NC(=O)[C@H](CC(=O)O)NC(=O)[C@H](CC(=O)O)NC(=O)[C@H](CCCNC(=N)N)NC(=O)[C@H](CC(=O)O)NC(=O)CC[C@H](NC(=O)c6ccc(NCc7cnc8nc(N)[nH]c(=O)c8n7)cc6)C(=O)O)C(=O)O)[C@H](C)C[C@@H]5C)C[C@@H]4C)O3)C[C@H]2C)[C@@H]1C (some centres unmarked) [conjugate 5]
binding affinity to folate receptors compared to folate-rhodamine compound 2 (folate receptor): three times lower

CO[C@@H]1C[C@@H](C[C@H]2CC[C@H](C)[C@H]([C@@H](C)C(=O)O)O2)O[C@]2(O[C@](C)([C@H]3CC[C@@](C)([C@@H]4O[C@@H]([C@H]5O[C@@](O)(CO)[C@H](C)C[C@@H]5C)C[C@@H]4C)O3)C[C@H]2C)[C@@H]1C [nigericin]
toxicity to the cells (KB cells [2]): not toxic
IC50 (KB cells [3]): 12 µM
